Each molecule was assayed on circulating lymphocytes (assay: Lymphopenia assay: measurement of circulating lymphocytes after oral gavage). Details: Mus musculus, Lymphocyte, po, mice, oral gavage 0.5 and 5 mg/kg in 30% HPCD, blood 5 and 24 hours after administration; read-out: Lymphopenia (ED50 mg/kg).
Format: in vivo, Mice (C57bl/6 male)
Experimental: Measurement of circulating lymphocytes: Compounds were dissolved in 30% HPCD. Mice (C57bl/6 male, 6-10 week-old) were administered 0.5 and 5 mg/kg of a compound via oral gavage. 30% HPCD was included as a negative control.
Blood was collected from the retro-orbital sinus 5 and 24 hours after drug administration under short isoflurane anesthesia. Whole blood samples were subjected to hematology analysis. Peripheral lymphocyte counts were determined using an automated analyzer (HEMAVET™ 3700). Three mice were used to assess the lymphocyte depletion activity of each compound screened.
With CC(N)(CO)c1ccc2nc(O[C@H]3CC[C@H](C(C)(C)C)CC3)ccc2c1 (relative stereo) [Example 78, 2-amino-2-(2-(trans-4-tert-butylcyclohexyloxy)quinolin-6-yl)propan-1-ol] the ED50 was > 5 mg/kg.
In the case of CC(C)(C)[C@H]1CC[C@H](Oc2ccc3cc([C@](C)(N)CO)ccc3n2)CC1 (single isomer, unassigned) [Example 79A], the ED50 is reported as > 5 mg/kg.
With CC(C)(C)[C@H]1CC[C@H](Oc2ccc3cc([C@@](C)(N)CO)ccc3n2)CC1 (single isomer, unassigned) [Example 79] the ED50 was > 5 mg/kg.
Work on CCCCCCCOc1ccc2nc(C(C)(N)CO)ccc2c1 (stereo not shown) [Example 38, 2-amino-2-(6-(heptyloxy)quinolin-2-yl)propan-1-ol] yielded an ED50 of 0.5 to 5 mg/kg.
CCCCCCCOc1ccc2nc([C@@](C)(N)CO)ncc2c1 [Example 50, (R)-2-Amino-2-(6-heptyloxyquinazolin-2-yl)propan-1-ol] showed an ED50 of 0.5 to 5 mg/kg.
In the case of CC(C)(C)[C@H]1CC[C@H](Oc2ccc3nc([C@@](C)(N)CO)ncc3c2C(F)(F)F)CC1 [Example 61, (R)-2-Amino-2-(6-(trans-4-tert-butylcyclohexyloxy)-5-(trifluoromethyl)quinazolin-2-yl)propan-1-ol], the ED50 is reported as 0.5 to 5 mg/kg.
CC(C)(C)[C@H]1CC[C@H](Oc2ccc3c(c2C(F)(F)F)CC[C@H]([C@@](C)(N)CO)C3)CC1 [Example 71, (R)-2-amino-2-((S)-6-(trans-4-tert-butylcyclohexyloxy)-5-(trifluoromethyl)-1,2,3,4-tetrahydronaphthalen-2-yl)propan-1-ol] was tested, and the ED50 was < 0.5 mg/kg.
With CC(C)(C)[C@H]1CC[C@H](Oc2cc3c(cc2C(F)(F)F)C[C@@H]([C@@](C)(N)CO)CC3)CC1 [Example 71A, (R)-2-amino-2-((S)-6-(trans-4-tert-butylcyclohexyloxy)-7-(trifluoromethyl)-1,2,3,4-tetrahydronaphthalen-2-yl)propan-1-ol] the ED50 was > 5 mg/kg.
Work on CCCCCCCOc1ccc2cc(C(C)(N)CO)cnc2c1 (stereo not shown) [Example 91, 2-amino-2-(7-(heptyloxy)quinolin-3-yl)propan-1-ol] yielded an ED50 of 0.5 to 5 mg/kg.
CCCCCCCCc1ccc2nc(C(C)(N)CO)sc2c1 (stereo not shown) [Example 99, 2-amino-2-(6-octylbenzo[d]thiazol-2-yl)propan-1-ol] was tested, and the ED50 was > 5 mg/kg.
CCCCCCCOc1ccc2cc(C(C)(N)CO)ccc2n1 (stereo not shown) [Example 103, 2-amino-2-(2-(heptyloxy)quinolin-6-yl)propan-1-ol] was tested, and the ED50 was 0.5 to 5 mg/kg.
NC(CO)(CO)C1CCc2cc(Sc3cccc(OCc4ccccc4)c3)ccc2C1 (stereo not shown) [Example 113, 2-Amino-2-(6-(3-(benzyloxy)phenylthio)-1,2,3,4-tetrahydronaphthalen-2-yl)propane-1,3-diol] was tested, and the ED50 was < 0.5 mg/kg.

Same assay, conditions: Mus musculus, Lymphocyte, po, read-out: Lymphopenia (ED50 mg/kg)
With CC(N)(CO)c1ccc2c(C(F)(F)F)c(O[C@H]3CC[C@H](C(C)(C)C)CC3)ccc2n1 (relative stereo) [Example 21, 2-Amino-2-[6-(trans-4-tert-butyl-cyclohexyloxy)-5-trifluoromethyl-quinolin-2-yl]-propan-1-ol] the ED50 was < 0.5 mg/kg.

Same assay, conditions: mice, oral gavage 0.5 and 5 mg/kg in 30% HPCD, blood 5 and 24 hours after administration
CC(N)(CO)c1ccc2cc(O[C@H]3CC[C@H](C(C)(C)C)CC3)ccc2n1 (relative stereo) [Example 18, 2-Amino-2-[6-(trans-4-tert-butyl-cyclohexyloxy)-quinolin-2-yl]-propan-1-ol] was tested, and the “Lymphopenia (ED50 mg/kg)” value was 0.5 to 5 mg/kg.
With CC(N)(CO)c1ccc2cc(O[C@H]3CC[C@H](C(C)(C)C)CC3)ccc2n1 (relative stereo) [Example 23, 2-Amino-2-[6-(trans-4-tert-butyl-cyclohexyloxy)-quinolin-2-yl]-propan-1-ol] the “Lymphopenia (ED50 mg/kg)” value was <0.5 mg/kg.
CC(N)(CO)c1ccc2cc(O[C@H]3CC[C@H](C(C)(C)C)CC3)ccc2n1 (relative stereo) [Example 24, 2-Amino-2-[6-(trans-4-tert-butyl-cyclohexyloxy)-quinolin-2-yl]-propan-1-ol] was tested, and the “Lymphopenia (ED50 mg/kg)” value was >5 mg/kg.
For CC(N)(CO)c1ccc2c(C(F)(F)F)c(O[C@H]3CC[C@H](C(C)(C)C)CC3)ccc2n1 (relative stereo) [Example 26, 2-Amino-2-[6-(trans-4-tert-butyl-cyclohexyloxy)-5-trifluoromethyl-quinolin-2-yl]-propan-1-ol], the “Lymphopenia (ED50 mg/kg)” value was <0.5 mg/kg.
For CC(N)(CO)c1ccc2c(C(F)(F)F)c(O[C@H]3CC[C@H](C(C)(C)C)CC3)ccc2n1 (relative stereo) [Example 27, 2-Amino-2-[6-(trans-4-tert-butyl-cyclohexyloxy)-5-trifluoromethyl-quinolin-2-yl]-propan-1-ol], the “Lymphopenia (ED50 mg/kg)” value was >5 mg/kg.

These molecules were tested against T1, human S1P3 receptor (Homo sapiens, UniProt Q99500) (assay: Calcium mobilization assay, recombinant CHEM cells expressing human S1P3). Details: FLIPR.
T1 construct: host or cells: recombinant CHEM cells
T1 sequence (Q99500 whole entry): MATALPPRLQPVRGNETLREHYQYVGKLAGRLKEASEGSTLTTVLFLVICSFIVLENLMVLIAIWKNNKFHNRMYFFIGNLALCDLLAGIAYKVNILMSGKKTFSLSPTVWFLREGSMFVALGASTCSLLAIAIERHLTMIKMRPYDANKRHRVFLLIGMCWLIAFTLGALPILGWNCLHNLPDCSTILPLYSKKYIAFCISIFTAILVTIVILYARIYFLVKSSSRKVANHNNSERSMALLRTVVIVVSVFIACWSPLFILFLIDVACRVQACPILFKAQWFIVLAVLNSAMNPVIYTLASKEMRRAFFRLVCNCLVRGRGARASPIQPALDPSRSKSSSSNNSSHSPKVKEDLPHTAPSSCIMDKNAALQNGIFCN
Format: cell-based
Experimental: Compounds that were not specific for the S1P1 receptor, can have activity for other S1P receptor subtypes, e.g., S1P2, S1P3, S1P4, or S1P5, and can cause undesirable side effects. Accordingly, compounds were tested to identify those that were specific for S1P1 activity and had little or no activity, or are antagonists of, S1P3 activity. Accordingly, the test compounds were tested in a calcium mobilization assay to determine agonist activity at either the human S1P1 or human S1P3 receptor, and antagonist activity only at the human S1P3 receptor. The procedure was essentially as described (with modifications described below) in Davis et al. (2005) Journal of Biological Chemistry, vol. 280, pp. 9833-9841, which is incorporated by reference in its entirety. Calcium mobilization assays were performed in recombinant CHEM cells expressing human S1P1 or S1P3 purchased from Millipore (Billerica, Mass.). To detect free intracellular calcium, S1P1 or S1P3 cells were loaded with FLIPR Calcium 4 dye from Molecular Devices (Sunnyvale, Calif.). Cells were imagined for calcium mobilization using a FLIPR^TETRA equipped with a 96-well dispense head.
With CCCCCCCCCCCCC/C=C/[C@@H](O)[C@@H](N)COP(=O)(O)O [Example S1P, Sphingosine 1-phosphate] the S1P3 agonist activity was “full S1P3 agonist”.
